From PubChem BioAssay AID1259411 (Chemical Carcinogenesis Research Information System (CCRIS), 2018) come the findings set out here.

Calls of active or inactive are those of the source. How the calls were made is not given here.

This data set concerns rodent carcinogenicity bioassays, tumor incidence. Nature of the data set: CCRIS carcinogenicity studies. In outline: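 Archive of carcinogenicity, mutagenicity, tumor promotion and tumor inhibition results drawn from journals, NCI reports and other sources, expert-reviewed; covers 1985-2011 and is no longer updated.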

Turning to `CCCCC(CC)COC(=O)c1ccccc1C(=O)OCC(CC)CCCC` (stereo not given), the carcinogen call is, setting by setting: (Species: MOUSE, Strain/Sex: B6C3F1/FEMALE, Route: ORAL, Dose: 0, 3000, 6000 PPM IN DIET FOR 102-104 WK (STUDY DURATION: 102-104 WK), Dose: 0, 3000, 6000 PPM IN DIET FOR 102-104 WK (STUDY DURATION: 102-104 WK), Tumor Site: Type of Lesion: LIVER: CARCINOMA, CARCINOMA OR ADENOMA) “active; positive”; (Species: MOUSE, Strain/Sex: B6C3F1/FEMALE, Route: ORAL, Dose: 0, 3000, 6000 PPM IN DIET FOR 103 WK (STUDY DURATION: 105 WK), Dose: 0, 3000, 6000 PPM IN DIET FOR 103 WK (STUDY DURATION: 105 WK), Tumor Site: Type of Lesion: LIVER: HEPATOCELLULAR CARCINOMA) “active; positive”; (Species: MOUSE, Strain/Sex: B6C3F1/MALE, Route: ORAL, Dose: 0, 3000, 6000 PPM IN DIET FOR 102-104 WK (STUDY DURATION: 102-104 WK), Dose: 0, 3000, 6000 PPM IN DIET FOR 102-104 WK (STUDY DURATION: 102-104 WK), Tumor Site: Type of Lesion: LIVER: CARCINOMA, CARCINOMA OR ADENOMA) “active; positive”; (Species: MOUSE, Strain/Sex: B6C3F1/MALE, Route: ORAL, Dose: 0, 3000, 6000 PPM IN DIET FOR 103 WK (STUDY DURATION: 104-105 WK), Dose: 0, 3000, 6000 PPM IN DIET FOR 103 WK (STUDY DURATION: 104-105 WK), Tumor Site: Type of Lesion: LIVER: HEPATOCELLULAR CARCINOMA) “active; positive”; (Species: RAT, Strain/Sex: F344/FEMALE, Route: ORAL, Dose: 0, 6000, 12000 PPM IN DIET FOR 102-104 WK (STUDY DURATION: 102-104 WK), Dose: 0, 6000, 12000 PPM IN DIET FOR 102-104 WK (STUDY DURATION: 102-104 WK), Tumor Site: Type of Lesion: LIVER: CARCINOMA, CARCINOMA OR ADENOMA) “active; positive”; (Species: RAT, Strain/Sex: F344/FEMALE, Route: ORAL, Dose: 0, 6000, 12000 PPM IN DIET FOR 103 WK (STUDY DURATION: 105 WK), Dose: 0, 6000, 12000 PPM IN DIET FOR 103 WK (STUDY DURATION: 105 WK), Tumor Site: Type of Lesion: LIVER: HEPATOCELLULAR CARCINOMA, NEOPLASTIC NODULE) “active; positive”. Moreover, the carcinogen call was “active; positive” (Species: RAT, Strain/Sex: F344/MALE, Route: ORAL, Dose: 0, 2% IN DIET FOR 78 WK (STUDY DURATION: 78 WK), Tumor Site: Type of Lesion: LIVER: NEOPLASM); “active; positive” (Species: RAT, Strain/Sex: F344/MALE, Route: ORAL, Dose: 0, 2% IN DIET FOR 108 WK (STUDY DURATION: 108 WK), Tumor Site: Type of Lesion: LIVER: NEOPLASTIC NODULE OR HEPATOCELLULAR CARCINOMA); “active; positive” (Species: RAT, Strain/Sex: F344/MALE, Route: ORAL, Dose: 0, 6000, 12000 PPM IN DIET FOR 102-104 WK (STUDY DURATION: 102-104 WK), Dose: 0, 6000, 12000 PPM IN DIET FOR 102-104 WK (STUDY DURATION: 102-104 WK), Tumor Site: Type of Lesion: LIVER: CARCINOMA, CARCINOMA OR ADENOMA); “active; positive” (Species: RAT, Strain/Sex: F344/MALE, Route: ORAL, Dose: 0, 6000, 12000 PPM IN DIET FOR 103 WK (STUDY DURATION: 104-105 WK), Dose: 0, 6000, 12000 PPM IN DIET FOR 103 WK (STUDY DURATION: 104-105 WK), Tumor Site: Type of Lesion: LIVER: HEPATOCELLULAR CARCINOMA OR NEOPLASTIC NODULE); “active; positive” (Species: RAT, Strain/Sex: SPRAGUE-DAWLEY/MALE (31-167/GROUP), Route: ORAL, Dose: 0, 30, 95, 300 MG/KG/D IN DIET UP TO 159 WK (STUDY DURATION: LIFE TIME), Dose: 0, 30, 95, 300 MG/KG/D IN DIET UP TO 159 WK (STUDY DURATION: LIFE TIME), Tumor Site: Type of Lesion: TESTIS: LEYDIG CELL TUMORS); “active; positive” (Species: RAT, Strain/Sex: SPRAGUE-DAWLEY/MALE (31-167/GROUP), Route: ORAL, Dose: 0, 30, 95, 300 MG/KG/D IN DIET UP TO 159 WK (STUDY DURATION: LIFETIME), Dose: 0, 30, 95, 300 MG/KG/D IN DIET UP TO 159 WK (STUDY DURATION: LIFETIME), Tumor Site: Type of Lesion: LIVER: CHOLANGIOCELLULAR TUMORS, TESTIS: LEYDIG CELL TUMORS (SIGNIFICANT DOSE RELATED TREND, INCIDENCE COMPARED TO CONTR, Tumor Site: Type of Lesion: LIVER: CHOLANGIOCELLULAR TUMORS, TESTIS: LEYDIG CELL TUMORS (SIGNIFICANT DOSE RELATED TREND, INCIDENCE COMPARED TO CONTR).
As for `CCN=[N+](C)[O-]`, the carcinogen call (Species: RAT, Strain/Sex: F344/MALE, Route: ORAL, Dose: 0, 12, 48 MG/ML IN A NEUTRAL DEIONIZED DRINKING WATER SOLUTION 5 D/WK FOR 30 WK (TOTAL DOSE 36; 144 MG) (STUDY DURATION:, Dose: 0, 12, 48 MG/ML IN A NEUTRAL DEIONIZED DRINKING WATER SOLUTION 5 D/WK FOR 30 WK (TOTAL DOSE 36; 144 MG) (STUDY DURATION:, Tumor Site: Type of Lesion: LIVER: CARCINOMA, HEMANGIOSARCOMA, KIDNEY: TUMOR) was “active; positive”.
Turning to `Cc1cc(-c2ccc(N)c(C)c2)ccc1N`, the carcinogen call is “inactive; negative” (Species: MOUSE, Strain/Sex: BALB/FEMALE, Route: ORAL, Dose: 0, 5, 9, 18, 35, 70, 140 PPM IN DRINKING WATER 7 D/WK FOR DURATION OF STUDY (STUDY DURATION: 112 WK), Dose: 0, 5, 9, 18, 35, 70, 140 PPM IN DRINKING WATER 7 D/WK FOR DURATION OF STUDY (STUDY DURATION: 112 WK)); “active; positive” (Species: MOUSE, Strain/Sex: BALB/MALE, Route: ORAL, Dose: 0, 5, 9, 18, 35, 70, 140 PPM IN DRINKING WATER 7 D/WK FOR DURATION OF STUDY (STUDY DURATION: 112 WK), Dose: 0, 5, 9, 18, 35, 70, 140 PPM IN DRINKING WATER 7 D/WK FOR DURATION OF STUDY (STUDY DURATION: 112 WK), Tumor Site: Type of Lesion: LUNG: ALVEOLAR CELL ADENOMA AND ADENOCARCINOMA); “active; positive” (Species: RAT, Route: SUBCUTANEOUS, Tumor Site: Type of Lesion: EAR (ZYMBAL GLAND)); “active; positive” (Species: RAT, Strain/Sex: F344/FEMALE, Route: ORAL, Dose: 0, 30, 70, 150 PPM IN DRINKING WATER 7 D/WK FOR 60-61 WK (STUDY DURATION: 60-61 WK), Dose: 0, 30, 70, 150 PPM IN DRINKING WATER 7 D/WK FOR 60-61 WK (STUDY DURATION: 60-61 WK)); “active; positive” (Species: RAT, Strain/Sex: F344/MALE, Route: ORAL, Dose: 0, 30, 70, 150 PPM IN DRINKING WATER 7 D/WK FOR 60-61 WK (STUDY DURATION: 60-61 WK), Dose: 0, 30, 70, 150 PPM IN DRINKING WATER 7 D/WK FOR 60-61 WK (STUDY DURATION: 60-61 WK), Tumor Site: Type of Lesion: PREPUTIAL GLAND: ADENOMA, ADENOMA OR CARCINOMA, LARGE INTESTINE: ADENOMATOUS POLYP, ADENOCARCINOMA, SMALL INTESTINE: ADE, Tumor Site: Type of Lesion: PREPUTIAL GLAND: ADENOMA, ADENOMA OR CARCINOMA, LARGE INTESTINE: ADENOMATOUS POLYP, ADENOCARCINOMA, SMALL INTESTINE: ADE).
`NC(=O)/C(=C\c1ccc([N+](=O)[O-])o1)c1ccco1`: the carcinogen call by setting is: (Species: HAMSTER, Strain/Sex: SYRIAN/MALE, Route: ORAL, Dose: 0.25% IN DIET, Tumor Site: Type of Lesion: FORESTOMACH: PAPILLOMA, SQUAMOUS CELL CARCINOMA, BILE DUCT: ADENOMA) “active; positive”; (Species: MOUSE, Strain/Sex: CD-1/MALE,FEMALE, Route: ORAL, Dose: 0.4% IN DIET FOR 18 MO, Tumor Site: Type of Lesion: FORESTOMACH: PAPILLOMA, SQUAMOUS CELL CARCINOMA) “active; positive”; (Species: MOUSE, Strain/Sex: DDY/MALE, Route: ORAL, Dose: 0.25% IN DIET FOR 308 DAYS, Tumor Site: Type of Lesion: FORESTOMACH: SQUAMOUS CELL CARCINOMA) “active; positive”; (Species: MOUSE, Strain/Sex: ICR/MALE,FEMALE, Route: ORAL, Dose: 0.08, 0.4% IN DIET FOR 440 DAYS, Tumor Site: Type of Lesion: FORESTOMACH: PAPILLOMA, SQUAMOUS CELL CARCINOMA) “active; positive”; (Species: RAT, Strain/Sex: WISTAR/FEMALE, Route: ORAL, Dose: 0.08, 0.4% IN DIET FOR 18 MO, Tumor Site: Type of Lesion: MAMMARY GLAND: ADENOCARCINOMA, FORESTOMACH: PAPILLOMA) “active; positive”; (Species: RAT, Strain/Sex: WISTAR/MALE, Route: ORAL, Dose: 0.4% IN DIET FOR 18 MO, Tumor Site: Type of Lesion: FORESTOMACH: PAPILLOMA) “active; positive”.
As for `C[C@@H]1C[C@H](C)CN(S(=O)(=O)c2ccc(Cl)c(C(=O)O)c2)C1`, the carcinogen call (Species: RAT, Strain/Sex: F344/MALE, Route: ORAL, Dose: 0.2% IN DIET FOR 7.5 MO, THEN 0.1% FOR 4 MO, THEN 0.05% FOR 4 MO, Tumor Site: Type of Lesion: LIVER: HEPATOCELLULAR CARCINOMA) is “active; positive”.
